Source: patent US9334286B2, “Pharmacologically active compounds” (Cancer Research Technology Limited, priority 2012, dated 2016)

Target: full length MPS1 (Homo sapiens (Human), UniProt P33981)
Test: Measurement of inhibition of MPS1 kinase (Caliper EZ reader, fluorescent labelled peptide H236)
Assay type: biochemical
Settings: full length MPS1 12.5 nM or 3 nM, peptide H236 5 μM, ATP 10 μM, 60 min at room temperature
Experimental: The reaction was carried out for 60 min at room temperature and stopped by the addition of buffer (10 μl) containing 20 mM EDTA, 0.05% (v/v) Brij-35, in 0.1M HEPES-buffered saline (Free acid, Sigma, UK). The plate was read on a Caliper EZ reader II (Caliper Life Sciences).
The reader provides a Software package (‘Reviewer’) which converts the peak heights into % conversion by measuring both product and substrate peak and also allows selection of control well which represent 0% and 100% inhibition respectively. The % inhibition of the compounds is calculated relative to the means of selected control wells. IC50s are determined by testing the compounds at a range of concentrations from 0.25 nM-100 μM. The % inhibitions at each concentration are then fitted to a 4 parameter logistic fit: y=(a+((b−a)/(1+((c/x^d)))) where a=asym min, b=asym max, c=IC50 and d=hill coefficient

Chain of full length MPS1 (P33981 whole entry): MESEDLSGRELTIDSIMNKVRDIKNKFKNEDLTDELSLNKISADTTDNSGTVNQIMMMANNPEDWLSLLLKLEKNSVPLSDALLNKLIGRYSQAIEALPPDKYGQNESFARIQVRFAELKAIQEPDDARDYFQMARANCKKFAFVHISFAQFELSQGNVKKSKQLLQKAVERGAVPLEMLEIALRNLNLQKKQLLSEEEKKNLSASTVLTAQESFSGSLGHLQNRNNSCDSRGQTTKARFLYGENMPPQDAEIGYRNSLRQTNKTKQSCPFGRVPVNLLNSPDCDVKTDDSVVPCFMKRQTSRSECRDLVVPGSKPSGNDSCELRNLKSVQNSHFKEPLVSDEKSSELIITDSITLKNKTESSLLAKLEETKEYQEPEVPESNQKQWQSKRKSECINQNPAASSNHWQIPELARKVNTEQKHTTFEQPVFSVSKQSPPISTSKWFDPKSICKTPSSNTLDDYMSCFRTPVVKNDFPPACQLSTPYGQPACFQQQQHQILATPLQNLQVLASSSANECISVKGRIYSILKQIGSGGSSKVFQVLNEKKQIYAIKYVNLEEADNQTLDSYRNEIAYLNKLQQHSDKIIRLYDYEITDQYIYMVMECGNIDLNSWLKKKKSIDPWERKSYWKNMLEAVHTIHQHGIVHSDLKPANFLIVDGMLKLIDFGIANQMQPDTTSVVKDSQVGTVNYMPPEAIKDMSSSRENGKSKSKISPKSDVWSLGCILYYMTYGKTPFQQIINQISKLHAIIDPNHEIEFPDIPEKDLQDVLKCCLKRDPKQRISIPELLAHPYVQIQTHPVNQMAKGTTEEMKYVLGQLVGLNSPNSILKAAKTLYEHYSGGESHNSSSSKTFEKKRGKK

SMILES: COc1cc(-c2cncn2C)ccc1Nc1cc2cc(-c3cnn(C)c3)ccc2cn1 [Example 21, N-(2-methoxy-4-(1-methyl-1H-imidazol-5-yl)phenyl)-6-(1-methyl-1H-pyrazol-4-yl)isoquinolin-3-amine]
- IC50: 3 nM

SMILES: CCOc1cc(C(=O)N2CC(OC)C2)ccc1Nc1cc2cc(-c3cnn(CC(C)(C)O)c3)ccc2cn1 [Example 92, (3-Ethoxy-4-(6-(1-(2-hydroxy-2-methylpropyl)-1H-pyrazol-4-yl)isoquinolin-3-ylamino)phenyl)(3-methoxyazetidin-1-yl)methanone]
- IC50: 2 nM

SMILES: COc1cc(-c2cnc(C)n2C)ccc1Nc1cc2cc(-c3ccc(N(C)C)nc3)ccc2cn1 [Example 8, N-(4-(1,2 dimethyl-1H-imidazol-5-yl)-2-methoxyphenyl)-6-(6-(dimethylamino)pyridin-3-yl)isoquinolin-3-amine]
- IC50: 108 nM

SMILES: COc1cc(-c2cnc(C)n2C)ccc1Nc1cc2cc(C(=O)N(C)C)ccc2cn1 [Example 89, 3-((4-(1,2-Dimethyl-1H-imidazol-5-yl)-2-methoxyphenyl)amino)-N,N-dimethylisoquinoline-6-carboxamideone]
- IC50: 472 nM

SMILES: COc1cc(-c2cnc(C)n2C)ccc1Nc1cc2nc(-c3cnn(CC4(O)CCC4)c3)ccc2cn1 [Example 106, 1-((4-(7-(4-(1,2-Dimethyl-1H-imidazol-5-yl)-2-methoxyphenylamino)-1,6-naphthyridin-2-yl)-1H-pyrazol-1-yl)methyl)cyclobutanol]
- IC50: 1 nM

SMILES: COc1cc(-c2cnn(C)c2CO)ccc1Nc1cc2cc(-c3cnn(CC(C)(C)O)c3)ccc2cn1 [Example 36, 1-(4-(3-((4-(5-(Hydroxymethyl)-1-methyl-1H-pyrazol-4-yl)-2-methoxyphenyl)amino)-isoquinolin-6-yl)-1H-pyrazol-1-yl)-2-methylpropan-2-ol]
- IC50: 3 nM

SMILES: COc1cc(C(=O)NC2CCN(C)CC2)ccc1Nc1cc2cc(-c3cnn(CC(C)(C)O)c3)ccc2cn1 [Example 67, 4-((6-(1-(2-Hydroxy-2-methylpropyl)-1H-pyrazol-4-yl)isoquinolin-3-yl)amino)-3-methoxy-N-(1-methylpiperidin-4-yl)benzamide]
- IC50: 5 nM

SMILES: COc1cc(-c2cnc(C)n2C)ccc1Nc1cc2cc(-c3cnn(C4COC4)c3)ccc2cn1 [Example 33, N-(4-(1,2-Dimethyl-1H-imidazol-5-yl)-2-methoxyphenyl)-6-(1-(oxetan-3-yl)-1H-pyrazol-4-yl)isoquinolin-3-amine]
- IC50: 3 nM

SMILES: CC(C)(O)Cn1cc(-c2ccc3cnc(Nc4ccc(S(C)(=O)=O)cc4Cl)cc3c2)cn1 [Example 59, 1-(4-(3-((2-Chloro-4-(methylsulfonyl)phenyl)amino)isoquinolin-6-yl)-1H-pyrazol-1-yl)-2-methylpropan-2-ol]
- IC50: 4 nM

SMILES: COc1cc(-c2nnc3n2CCN(C)C3)ccc1Nc1cc2cc(-c3cnn(CC(C)(C)O)c3)ccc2cn1 [Example 70, 1-(4-(3-((2-Methoxy-4-(7-methyl-5,6,7,8-tetrahydro-[1,2,4]triazolo[4,3-a]pyrazin-3-yl)-phenyl)amino)isoquinolin-6-yl)-1H-pyrazol-1-yl)-2-methylpropan-2-ol]
- IC50: 2 nM

SMILES: CCn1cc(-c2ccc3cnc(Nc4ccc(-c5cnc(C)n5C)cc4OC)cc3c2)cn1 [Example 10, N-(4-(1,2-dimethyl-1H-imidazol-5-yl)-2-methoxyphenyl)-6-(1-ethyl-1H-pyrazol-4-yl)isoquinolin-3-amine]
- IC50: 7 nM

SMILES: CC(C)(O)Cn1cc(-c2ccc3cnc(Nc4ccc(-c5cncnc5)cc4Cl)cc3c2)cn1 [Example 58, 1-(4-(3-((2-Chloro-4-(pyrimidin-5-yl)phenyl)amino)isoquinolin-6-yl)-1H-pyrazol-1-yl)-2-methylpropan-2-ol]
- IC50: 5 nM

SMILES: COc1cc(-c2cnc(C)n2C)ccc1Nc1cc2cc(-c3cnn(CC(C)O)c3)ccc2cn1 (single isomer, unassigned) [Example 98, 1-(4-(3-((4-(1,2-dimethyl-1H-imidazol-5-yl)-2-methoxyphenyl)amino)isoquinolin-6-yl)-1H-pyrazol-1-yl)propan-2-ol]
- IC50: 3 nM
